Results as given in patent US20120129811A1, “TRICYCLIC INHIBITORS OF PRO-MATRIX METALLOPROTEINASE ACTIVATION” (priority 2010, published 2012).

Legend:
[1] = molecular target: T1, MMP9 mediated gelatinase activity (Rattus norvegicus, UniProt P50282); assay: In situ zymography of gelatinase activity in livers of SCW-induced rats dosed with Compound-α; type: in vivo; details: for Intensity, Rat 1 / Intensity, Rat 2 / Intensity, Rat 3 / Intensity, Mean: SCW, liver; for Intensity, Mean: n=3
T1 construct: from tissue; host or cells: frozen liver sections of female Lewis rats
T1 sequence (P50282 20-708): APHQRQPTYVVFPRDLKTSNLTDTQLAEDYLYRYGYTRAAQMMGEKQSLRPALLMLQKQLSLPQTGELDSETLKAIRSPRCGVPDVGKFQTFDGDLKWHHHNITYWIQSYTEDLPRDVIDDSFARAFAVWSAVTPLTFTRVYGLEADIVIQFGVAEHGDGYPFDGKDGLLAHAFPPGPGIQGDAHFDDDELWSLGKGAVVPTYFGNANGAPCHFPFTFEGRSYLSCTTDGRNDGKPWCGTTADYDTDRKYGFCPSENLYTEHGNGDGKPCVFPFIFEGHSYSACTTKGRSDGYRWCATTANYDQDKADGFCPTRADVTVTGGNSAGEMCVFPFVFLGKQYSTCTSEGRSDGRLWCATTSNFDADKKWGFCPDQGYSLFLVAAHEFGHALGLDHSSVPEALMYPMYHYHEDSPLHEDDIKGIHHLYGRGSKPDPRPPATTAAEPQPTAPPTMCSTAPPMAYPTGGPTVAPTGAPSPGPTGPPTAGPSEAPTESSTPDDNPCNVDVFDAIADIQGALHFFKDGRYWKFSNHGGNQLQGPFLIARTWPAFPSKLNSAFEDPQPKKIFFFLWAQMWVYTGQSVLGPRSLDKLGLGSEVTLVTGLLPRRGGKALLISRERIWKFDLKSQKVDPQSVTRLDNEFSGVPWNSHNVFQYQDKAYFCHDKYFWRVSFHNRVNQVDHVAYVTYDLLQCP
Source text: In situ zymography provides an alternative approach to assess active MMP9 in tissues (Frederiks). Tissue sections are overlain with fluorescene-conjugated gelatin wherein the conjugation is sufficiently dense to cause the fluorescene to be dye-quenched (DQ). Proteolytic degradation of the DQ-gelatin releases the fluorescene from the quenching effect giving rise to bright green fluorescence at the site of degradation. Because in situ zymography requires the use of frozen sections, calcified tissues are problematic. However, an additional feature of the SCW arthritis model is the development of hepatic granulomatous disease (J Immunol; 1986; 137:2199-2209), and MMP9 reportedly plays a role in macrophage recruitment in the granulomas response to mycobacteria (Infect Immun; 2006; 74:6135-6144). Consequently, granulomatous livers from SCW-treated rats were assessed for active MMP9 by in situ zymography.
As described above, Female Lewis (LEW/N) rats, 5-6 weeks of age (80-100 g) were injected (i.p.) with saline or SCW PG-PS. On day 28, when the granulomatous response was well established, animals were sacrificed and livers were frozen in OCT cryo-sectioning medium and 10 μm sections were cut on a Cryome HM 500 M cryotome and mounted on glass microscope slides. Sections were air dried briefly. MMP9 was confirmed as the source of the gelatinase activity in the liver by treating liver sections with monoclonal antibodies directed against the active site of the two major gelatinases MMP9 and MMP2. Liver sections overlain with 50 μL of 100 μg/mL neutralizing mouse monoclonal antibodies directed against MMP9 (Calbiochem, clone 6-6B), or MMP2 (Millipore, clone CA-4001), or with PBS for 1 hr at room temperature. Tissues were rinsed once with PBS, blotted, and briefly air dried and then overlain with DQ-gelatin (Invitrogen) dissolved to 1 mg/mL in deionized water and then diluted 1:10 in 1% wt/vol low gelling point agarose type VII (Sigma) in PBS. The sections were covered with coverslips, incubated in the dark at room temperature for 20 min, and imaged on an Olympus IX80 inverted microscope fitted with fluorescence optics, using SlideBook™ imaging software (Intelligent Imaging Innovations, Inc., Philadelphia, Pa.; version 5.0). Fluorescence intensity was determined (Table 8). When compared to a saline-treated rat, gelatinase activity was abundantly expressed in granulomatous liver sections obtained from a rat with SCW arthritis.
Next, liver in situ zymography was used to assess the relative presence of active MMP9 in rats dosed with vehicle vs. Compound-α. Female Lewis (LEW/N) rats, 5-6 weeks of age (80-100 g) were injected (i.p.) with saline or SCW PG-PS. Commencing on day 25, randomized groups of rats (n=3 rats/group) received vehicle or 20 or 50 mg/kg Compound-α BID by oral gavage. Vehicle consisted of an aqueous mixture containing 2% (v:v) N-methylpyrrolidone, 5% (v:v) glycerine, and 20% (w:v) captisol. Treatment continued daily through the morning of day 28. Four hrs after the AM dose on day 28, rats were sacrificed and livers assessed for active MMP9 by in situ zymography (Table 9). Gelatinase activity was increased markedly in SCW-induced rats, but activity was reduced by approximately 80% in animals treated with 50 mg/kg Compound-α.

[2] = system: rats with SCW-induced arthritis; assay: Efficacy in rats with SCW-induced arthritis (ankle thickness, clinical scores); type: in vivo, rat; details: for Ankle thickness, Day 18 / Clinical Scores (0-8), Day 18: Day 18 (start of treatment); for Ankle thickness, Day 18 / Ankle thickness, Day 26 / Clinical Scores (0-8), Day 18 / Clinical Scores (0-8), Day 26: mean n=5; for % Inh (disease associated increase in ankle thickness): Day 26
Source text: A polyarthritis can be induced in female Lewis rats following i.p. administration of streptococcal cell wall (SCW) proteoglycan-polysaccharides (PG-PS) (J Exp Med 1977; 146:1585-1602). The model has an acute phase (days 3-7) that is complement and neutrophil-dependent and that resolves. A chronic erosive phase begins at about day ten and is dependent on the development of specific T cell immunity to the PG-GS, which resists digestion and remains present in synovial macrophages for months. Like rheumatoid arthritis, SCW-induced arthritis is reduced by TNF inhibitors, and the dependence of SCW-induced arthritis on macrophages (Rheumatology; 2001; 40:978-987) and the strong association of rheumatoid arthritis severity with synovial-tissue macrophage counts (Ann Rheum Dis; 2005; 64:834-838) makes SCW-arthritis an attractive model for testing potential therapeutic agents. SCW PG-PS 10S (Beckton Dickinson Cat#210866) suspended in saline was vortexed for 30 seconds and sonicated for 3 min with a probe type sonicator prior to injection. Female Lewis (LEW/N) rats, 5-6 weeks of age (80-100 g) were injected (i.p.) with SCW PG-PS (15 μg of rhamnose/gram BW) in the lower left quadrant of the abdomen using a 1 mL syringe fitted with a 23-gauge needle. Control (disease-free) rats were treated in a similar manner with sterile saline. Control rats were sacrificed on day 5 and groups of SCW-injected rats were sacrificed on day 5 when acute inflammation was maximal or on day 18 when chronic inflammation was established.
To induce arthritis, Female Lewis (LEW/N) rats, 5-6 weeks of age (80-100 g) were injected (i.p.) with SCW PG-PS as described above. Eighteen days later, arthritis was well established. Calipers were used to measure the width (anterior to posterior surface) of the left and right hind ankles of each rat. Each ankle was measured 3 times and averaged, and treatment groups were randomized based on ankle thickness (Table 6). Commencing on day 18, randomized groups of arthritic rats (n=5 rats/group) received vehicle or 5, 20, or 50 mg/kg Compound-α BID by oral gavage. Vehicle consisted of an aqueous mixture containing 2% (v:v) N-methylpyrrolidone, 5% (v:v) glycerine, and 20% (w:v) captisol. Treatment continued daily through the morning of day 26.
Hind paw inflammation clinical scores were assigned based on swelling and erythema.

[3] = 20 mg/kg BID oral gavage Day 25-28
[4] = 50 mg/kg BID oral gavage Day 25-28
[5] = 5 mg/kg BID oral gavage Day 18-26
[6] = 20 mg/kg BID oral gavage Day 18-26
[7] = 50 mg/kg BID oral gavage Day 18-26

Cc1nc(C)c(-c2csc(Nc3cc(S(N)(=O)=O)ccc3OC(C)C)n2)s1 [Compound α, 3-(2′,4′-Dimethyl-[4,5′]bithiazolyl-2-ylamino)-4-isopropoxy-benzenesulfonamide.HBr]
reduction of gelatinase activity in liver ([1]; 50 mg/kg, SCW-induced rats, day 28): approximately 80%
Intensity, Rat 1 [1, 3]: 43.0 RLU × 10^6
Intensity, Rat 2 [1, 3]: 69.0 RLU × 10^6
Intensity, Rat 3 [1, 3]: 53.7 RLU × 10^6
Intensity, Mean [1, 3]: 55.2 RLU × 10^6
Intensity, Rat 1 [1, 4]: 3.2 RLU × 10^6
Intensity, Rat 2 [1, 4]: 25.6 RLU × 10^6
Intensity, Rat 3 [1, 4]: 4.5 RLU × 10^6
Intensity, Mean [1, 4]: 11.1 RLU × 10^6
Day 26 Δ mm (vs. group 1) [2, 5]: 3.67 mm
Ankle thickness, Day 18 [2, 5]: 11.79 mm
% Inh (disease associated increase in ankle thickness) [2, 5]: 27%
Ankle thickness, Day 26 [2, 5]: 10.93 mm
Clinical Scores, Δ Day 18 vs. day 26 ([2]; 5 mg/kg Day 18-26): −1.20
Clinical Scores (0-8), Day 18 ([2]; 5 mg/kg Day 18-26): 8.00
Clinical Scores (0-8), Day 26 ([2]; 5 mg/kg Day 18-26): 6.80
Day 26 Δ mm (vs. group 1) [2, 6]: 3.15 mm
Ankle thickness, Day 18 [2, 6]: 11.76 mm
% Inh (disease associated increase in ankle thickness) [2, 6]: 37%
Ankle thickness, Day 26 [2, 6]: 10.42 mm
Clinical Scores, Δ Day 18 vs. day 26 ([2]; 20 mg/kg Day 18-26): −2.80
Clinical Scores (0-8), Day 18 ([2]; 20 mg/kg Day 18-26): 8.00
Clinical Scores (0-8), Day 26 ([2]; 20 mg/kg Day 18-26): 5.20
Day 26 Δ mm (vs. group 1) [2, 7]: 2.73 mm
Ankle thickness, Day 18 [2, 7]: 11.68 mm
% Inh (disease associated increase in ankle thickness) [2, 7]: 46%
Ankle thickness, Day 26 [2, 7]: 9.99 mm
Clinical Scores, Δ Day 18 vs. day 26 ([2]; 50 mg/kg Day 18-26): −3.40
Clinical Scores (0-8), Day 18 ([2]; 50 mg/kg Day 18-26): 7.80
Clinical Scores (0-8), Day 26 ([2]; 50 mg/kg Day 18-26): 4.40
effect on ankle thickness measurements ([2]; 5, 20, 50 mg/kg BID, Day 18-26): dose-dependent decrease in ankle thickness measurements
effect on clinical score measurements ([2]; 5, 20, 50 mg/kg BID, Day 18-26): dose dependent decrease in clinical score measurements
